{"source": "paper PMC3923439", "about": "“Anti-inflammatory properties of a novel peptide interleukin 1 receptor antagonist” (Journal of Neuroinflammation, 2014)", "key": {"IL-1RI–IL-1β binding": {"molecular_target": "T1, IL-1RI–IL-1β binding (Homo sapiens, UniProt P14778)", "T1 construct": "purchased R&D Systems", "T1 sequence (P14778 18-336 limits assumed)": "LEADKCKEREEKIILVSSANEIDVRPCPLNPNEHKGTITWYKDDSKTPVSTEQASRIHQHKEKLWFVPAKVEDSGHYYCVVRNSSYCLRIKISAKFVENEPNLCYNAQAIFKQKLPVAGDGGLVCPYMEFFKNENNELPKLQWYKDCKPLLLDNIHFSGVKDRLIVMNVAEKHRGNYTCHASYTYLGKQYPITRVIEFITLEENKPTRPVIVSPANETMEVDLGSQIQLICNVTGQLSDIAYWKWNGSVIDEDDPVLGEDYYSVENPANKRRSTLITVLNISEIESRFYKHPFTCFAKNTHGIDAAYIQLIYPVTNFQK", "experiment": "SPR competition: binding of IL-1RI ectodomain to immobilized IL-1β in the presence of peptide", "details": "three experiments", "description": "The binding analysis was performed using a Biacore 2000 instrument (GE Healthcare Life Sciences) that contained 150 mM NaCl as running buffer at 25°C with 10 mM sodium phosphate (pH 7.4). The flow rate was 5 μl/min during immobilization. Ilantide peptide, IL-1β or IL-1Ra was immobilized on a CM4 sensor chip according to the manufacturer’s instructions, after which the recombinant ectodomain of IL-1RI (R&D Systems) was injected. The neural cell adhesion molecule (NCAM) immunoglobulin modules 1 and 2 (Ig1 and Ig2) were used as a negative control protein [9]. The data were analyzed using nonlinear curve-fitting with the manufacturer’s software.\nFigure 2 Interaction between Ilantide, interleukin 1β, and interleukin 1 receptor antagonist and soluble IL-1 receptor type I. Binding was studied using surface plasmon resonance analysis. […] Binding is expressed as the response difference between the binding of IL-1 receptor type I (IL-1RI) to the sensor chip with the immobilized peptide, IL-1β, or IL-Ra and a blank sensor chip. […] The results from three experiments are expressed as mean RU ± SEM. **P < 0.01 and ***P < 0.001 compared with binding of IL-1RI alone to IL-1β (one-way analysis of variance followed by the Newman-Keuls post hoc test)."}, "[1]": {"test_system": "Cerebellar granule neurons", "experiment": "Neurite outgrowth from cerebellar granule neurons", "format": "cell-based, rat", "details": "7-day-old CGNs grown on fibroblast cells, 24 hours", "description": "Cerebellar granule neurons (CGNs) were prepared from 7-day-old Wistar rats (from Charles River Laboratories, Sulzfeld, Germany; or from Hygind Møllegård Erik Møllegaard Hansen, Ejby, Denmark) as previously described. Briefly, the cerebella were cleared of meninges and blood vessels, roughly homogenized by chopping and trypsinized. The cells were washed in the presence of DNAse I and soybean trypsin inhibitor (Sigma-Aldrich, St Louis, MO, USA), and cellular debris was pelleted by centrifugation. The fibroblastoid mouse cell line L929 (LVN; European Collection of Cell Cultures, Porton Down, UK) was routinely grown at 37°C with 5% CO2 in DMEM supplemented with 10% (vol/vol) FCS, 2 mM GlutaMAX, 100 U/ml penicillin and 100 μg/ml streptomycin.\nCerebellar granule neurons were plated at a density of 1 × 10^5 cells/cm^2 on poly-L-lysine-coated, eight-well Permanox Lab-Tek chamber slides (Nunc) in Neurobasal-A medium supplemented with 2% (vol/vol) B27 (Gibco BRL), 0.5% (vol/vol) GlutaMAX, 100 U/ml penicillin and 100 μg/ml streptomycin. The CGN survival assay was performed as previously described. The neurite outgrowth assay was also performed as previously described.\nFigure 6 Effect of Ilantide on neurite outgrowth from cerebellar granule neurons. Cerebellar granule neuron cultures were treated with interleukin 1 receptor antagonist (IL-1Ra) (A), soluble interleukin 1 receptor type I (sIL-1RI) (B), Ilantide-t (C) or IL-1β (D) for 24 hours. The cultures were fixed and immunostained with rabbit anti-rat growth-associated protein 43 (anti-GAP-43) primary antibodies and then with secondary Alexa Fluor 488 goat anti-rabbit antibodies. (E) Effect of IL-1β on neurite outgrowth induced by IL-1Ra. (F) Effect of IL-1β on neurite outgrowth induced by Ilantide-t. The results from three to four independent experiments are expressed as percentage ± SEM with untreated controls set at 100%, corresponding to an average neurite length of 19.3 ± 4.1 μm. *P < 0.05 and **P < 0.01 compared with untreated controls (A to D) or cultures treated with either IL-1Ra or Ilantide alone (E and F) by one-way analysis of variance followed by the Newman-Keuls post hoc test)."}, "[2]": {"test_system": "neonatal rat pancreatic islets", "experiment": "IL-1β-induced nitric oxide production (nitrite, Griess reagent)", "format": "cell-based", "details": "nitrites in supernatants of the apoptosis experiments, four independent experiments", "description": "For cell death detection, rat islets were incubated with 150 pg/ml IL-1β (BD Pharmingen, San Diego, CA, USA) alone or in combination with various concentrations of Ana and Ilantide for 24 hours at 37°C in humidified atmospheric air. Rat islet cell death was assessed by cell death detection ELISA (Roche, Lund, Sweden) as previously described. As a surrogate measure of nitric oxide production, Griess reagent (1:1 aqueous mixture of 0.1% naphthylethylenediamine hydrochloride and 1% sulfanilamide + 5% H3PO4) was mixed in a 1:1 ratio with 100 μl of supernatant samples to determine the nitrite content in supernatants from the cell death assays described above.\nFigure 8 Effect of Ilantide on interleukin 1β-induced nitric oxide production. Anakinra (A) but none of the peptides, Ilantide-m (B) or Ilantide-t (C), inhibited interleukin 1β (IL-1β)-induced nitric oxide production. The results of four independent experiments are shown. *P < 0.05 and **P < 0.01 compared with cultures treated with IL-1 alone (one-way analysis of variance followed by Dunnett’s post hoc test)."}, "[3]": {"test_system": "experimental autoimmune encephalomyelitis", "experiment": "Experimental autoimmune encephalomyelitis", "format": "in vivo, rat", "details": "female Lewis rats", "description": "Experimental autoimmune enchephalomyelitis was induced in female Lewis rats by guinea pig myelin basic protein (MBP) emulsified with CFA (Sigma-Aldrich) that contained 1.0 mg/ml heat-inactivated M. tuberculosis. While the animals were under inhalation anesthesia (3% isoflurane; Baxter), 200 μl of an emulsion that contained 200 μg of MBP were subcutaneously injected at the tail base (dpi 0). Between dpi 0 and 21, weight and clinical signs of EAE were recorded daily for all of the animals. Clinical signs were scored as follows: 0 (no abnormality), 0.5 (weak tail), 1 (limp tail), 2 (mild palsy of one or both hind legs), 3 (severe palsy of one or both hind legs), 4 (complete paralysis of one or both hind legs), 5 (paralysis of one or both hindlimbs and the beginning of paralysis of the forelimbs) and 6 (moribund). Animals with a clinical score ≥4 were immediately killed. From dpi 10 forward, the animals were treated once daily for 5 consecutive days with Ilantide-t (10 mg/kg, 1 ml/kg, s.c.) or PBS (1.0 ml/kg s.c.). Only animals that reached a clinical score ≥1 before dpi 14 were included in the study."}, "[4]": {"details": "10 mg/kg s.c. once daily dpi 10 to 14"}, "[5]": {"details": "10 mg/kg s.c. once daily for 5 days"}}, "note": "Positions of bridges follow the written chain, without caps; N, C: chain ends. Chains are numbered I, II in the order given. No end group written: not given here."}
{"substance": "I: SGRKSSKMQAKK-NH2 / II: SGRKSSKMQAK / III: SGRKSSKMQA / IV: SGRKSSKMQA (amide I:11-IV:C, I:12-II:C, II:11-III:C; C-terminus assumed) [Ilantide-t]", "values": [{"measurement": "Inhibition of binding between IL-1RI and IL-1β", "setting": "IL-1RI–IL-1β binding", "value": "dose-dependently inhibited"}, {"measurement": "Neurite outgrowth from CGNs", "setting": "[1]", "value": "significantly induced neurite outgrowth"}, {"measurement": "Inhibition of IL-1β-induced nitric oxide production", "setting": "[2]", "value": "none"}, {"measurement": "Clinical signs of EAE", "setting": "[3]; [4]", "value": "attenuated"}, {"measurement": "Effect on weight change or survival in EAE", "setting": "[3]; [4]", "value": "no significant effects"}, {"measurement": "Mean clinical signs of EAE versus vehicle, first and second days after onset", "setting": "[3]; [5]", "value": "significantly lower"}, {"measurement": "Mean clinical signs of EAE versus vehicle, later time points", "setting": "[3]; [5]", "value": "no difference"}]}
{"substance": "IL-1Ra: recombinant interleukin 1 receptor antagonist purchased from R&D Systems", "values": [{"measurement": "Neurite outgrowth from CGNs", "setting": "[1]", "value": "significantly induced neurite outgrowth"}]}
